In patent US10188634B2, “3-(3H-imidazo[4,5-C]pyridin-2-yl)-1 H-pyrazolo[4,3-B]pyridines and therapeutic uses thereof” (Samumed, LLC, priority 2015, dated 2019):

Columns and labels:
[1] = tested on: LL29 cells (primary human fibroblasts derived from IPF patients) treated with TGF-β1, α-smooth muscle actin; experiment: Inhibition of the fibrotic process: αSMA staining in TGF-β1 treated primary human fibroblasts from IPF patients (LL29 cells); type: cell-based; conditions: Fibroblast, 96 h; for EC50: LL29 cells treated with TGF-β1 (20 ng/mL), 4 days; for inhibition at 10 µM: LL29 cells treated with TGF-β1, 4 days, read-out: percent inhibition in brackets (given for EC50 >10 μM)
Excerpt: Representative compounds were screened using primary human fibroblasts (derived from IPF patients) treated with TGF-β1 to determine their ability to inhibit the fibrotic process.
Human Fibroblast Cell Culture: Primary human fibroblasts derived from IPF patients (LL29 cells) [^1Xiaoqiu Liu, et.al., “Fibrotic Lung Fibroblasts Show Blunted Inhibition by cAMP Due to Deficient cAMP Response Element-Binding Protein Phosphorylation”, Journal of Pharmacology and Experimental Therapeutics (2005), 315(2), 678-687; ^2Watts, K. L., et.al., “RhoA signaling modulates cyclin D1 expression in human lung fibroblasts; implications for idiopathic pulmonary fibrosis”, Respiratory Research (2006), 7(1), 88] were obtained from American Type Culture Collection (ATCC) and expanded in F12 medium supplemented with 15% Fetal Bovine Serum and Penicillin/Streptomycin.
Compound Screening: Each compound was dissolved in DMSO as a 10 mM stock and used to prepare compound source plates. […] LL29 cells are plated at 1,500 cells/well in 80 μL/well F12 medium supplemented with 1% Fetal Bovine Serum. One hour after addition of the cells, TGF-β1 (Peprotech; 20 ng/mL) was added to the plates to induce fibrosis (ref. 1 and 2 above). Wells treated with TGF-β1 and containing DMSO were used as controls. Cells were incubated at 37° C. and 5% CO2 for 4 days. Following incubation for 4 days, SYTOX green nucleic acid stain (Life Technologies [Thermo Fisher Scientific]) was added to the wells at a final concentration of 1 μM and incubated at room temperature for 30 min. Cells were then fixed using 4% formaldehyde (Electron Microscopy Sciences), washed 3 times with PBS followed by blocking and permeabilization using 3% Bovine Serum Albumin (BSA; Sigma) and 0.3% Triton X-100 (Sigma) in PBS. Cells were then stained with antibody specific to α-smooth muscle actin (αSMA; Abcam) (ref. 1 and 2 above) in 3% Bovine Serum Albumin (BSA; Sigma) and 0.3% Triton X-100 (Sigma) in PBS, and incubated overnight at 4° C. Cells were then washed 3 times with PBS, followed by incubation with Alexa Flor-647 conjugated secondary antibody (Life Technologies [Thermo Fisher Scientific]) and DAPI at room temperature for 1 hour. Cells were then washed 3 times with PBS and plates were sealed for imaging. αSMA staining was imaged by excitation at 630 nm and emission at 665 nm and quantified using the Compartmental Analysis program on the CellInsight CX5 (Thermo Scientific). Dead or apoptotic cells were excluded from analysis based on positive SYTOX green staining. % of total cells positive for αSMA were counted in each well and normalized to the average of 11 wells treated with TGF-β1 on the same plate using Dotmatics' Studies Software. The normalized averages (fold change over untreated) of 3 replicate wells for each compound concentration were used to create dose-responses curves and EC50 values were calculated using non-linear regression curve fit in the Dotmatics' Studies Software. For EC50 of >10 μM, the percent inhibition at 10 μM is provided.

IL-6 in THP-1 cells = experiment: Inhibition of IL-6 in LPS-stimulated THP-1 human monocyte cells (HTRF); type: cell-based; conditions: IL-6 HTRF; for EC50: 500 ng/mL LPS, 22 hours; for inhibition at 10 µM: LPS, read-out: percent inhibition in brackets (given for EC50 >10 μM)
Description: Human Monocyte Cell Culture: Human monocyte cell line (THP-1 cells; Catalog # TIB-202, ATCC, Manassas, Va.) were cultured in Roswell Park Memorial Institute (RPMI) 1640 Medium (Catalog #21870-100, Buffalo, N.Y.) with 1% L-glutamine, 1% HEPES, 1% Sodium Pyruvate, 2% Sodium Bicarbonate supplemented with 100 units/mL penicillin, 50 μg/mL streptomycin, 2-mercaptoethanol (0.05 mM) [basal medium] and 10% fetal bovine serum (Catalog #16140089, Life Technologies, Carlsbad, Calif.) at 37° C. and 5% CO2.
Compound Screening: THP-1 cells were cultured in basal media with 1% FBS for 24 hours before the start of the assay. Each compound was dissolved in DMSO as a 10 mM stock and used to prepare compound source plates. Serial dilution (1:3, 10-point dose-response curves starting from 10 μM) and compound transfer was performed using the ECHO 550 (Labcyte, Sunnyvale, Calif.) into 384-well white low volume assay plates (Greiner Bio-One) with appropriate DMSO backfill for a final DMSO concentration of 0.1%. THP-1 cells were plated at 5000 cells/well in the 384-well plates and incubated at 37° C. for 2 h. 500 ng/mL of LPS was added after 2 hours and cells were incubated for another 22 hours at 37° C. Plates were spun in a centrifuge for 1 minute at […] and a mixture of anti-IL6 XL665, and anti-IL6 Cryptate diluted in reconstitution buffer (Cisbio Inc.) was added to each well. Following incubation for 3 hrs at room temperature, Homogeneous Time-Resolved Fluorescence (HTRF) was measured using the Envision (Perkin Elmer) at 665 nm and […]. The ratio of fluorescence at 665 nm to 620 nm was used as a readout for IL6 quantification. All samples were processed in duplicate. Readings were normalized to DMSO treated cells and normalized activities were utilized for EC50 calculations using the dose-response log (inhibitor) vs. response -variable slope (four parameters) nonlinear regression feature available in GraphPad Prism 5.0 (or Dotmatics). For EC50 of >10 μM, the percent inhibition at 10 μM is provided.

EC50 (IL-6 in THP-1 cells) [µM]	Structure (SMILES)	EC50 [1] [µM]	inhibition at 10 µM [1] [%]	inhibition at 10 µM (IL-6 in THP-1 cells) [%]
> 10	CC(C)CC(=O)Nc1cncc(-c2ccc3[nH]nc(-c4nc5c(-c6cccc(F)c6)cncc5[nH]4)c3n2)c1 [Compound 2, N-(5-(3-(7-(3-Fluorophenyl)-3H-imidazo[4,5-c]pyridin-2-yl)-1H-pyrazolo[4,3-b]pyridin-5-yl)pyridin-3-yl)-3-methylbutanamide]	4.09	–	25.4
> 10	Cc1ccncc1-c1ccc2[nH]nc(-c3nc4c(-c5ccncc5)cncc4[nH]3)c2n1 [Compound 117, 5-(4-Methylpyridin-3-yl)-3-(7-(pyridin-4-yl)-3H-imidazo[4,5-c]pyridin-2-yl)-1H-pyrazolo[4,3-b]pyridine]	> 10	0	43.5
> 10	Oc1cncc(-c2ccc3[nH]nc(-c4nc5c(-c6cccc(F)c6)cncc5[nH]4)c3n2)c1 [Compound 489, 5-(3-(7-(3-Fluorophenyl)-3H-imidazo[4,5-c]pyridin-2-yl)-1H-pyrazolo[4,3-b]pyridin-5-yl)pyridin-3-ol]	2.31	–	43.3
> 10	CCC(=O)Nc1cncc(-c2ccc3[nH]nc(-c4nc5c(-c6cccc(F)c6)cncc5[nH]4)c3n2)c1 [Compound 1, N-(5-(3-(7-(3-Fluorophenyl)-3H-imidazo[4,5-c]pyridin-2-yl)-1H-pyrazolo[4,3-b]pyridin-5-yl)pyridin-3-yl)propionamide]	> 10	0	25.8
> 10	Fc1cccc(-c2cncc3[nH]c(-c4n[nH]c5ccc(-c6ccncc6)nc45)nc23)c1 [Compound 18, 3-(7-(3-Fluorophenyl)-3H-imidazo[4,5-c]pyridin-2-yl)-5-(pyridin-4-yl)-1H-pyrazolo[4,3-b]pyridine]	> 10	0	8.6
> 10	c1cncc(-c2ccc3[nH]nc(-c4nc5c(-c6cccnc6)cncc5[nH]4)c3n2)c1 [Compound 88, 5-(Pyridin-3-yl)-3-(7-(pyridin-3-yl)-3H-imidazo[4,5-c]pyridin-2-yl)-1H-pyrazolo[4,3-b]pyridine]	4.96	–	13.9
> 10	Fc1ccc(-c2cncc3[nH]c(-c4n[nH]c5ccc(-c6cncnc6)nc45)nc23)cc1 [Compound 55, 3-(7-(4-Fluorophenyl)-3H-imidazo[4,5-c]pyridin-2-yl)-5-(pyrimidin-5-yl)-1H-pyrazolo[4,3-b]pyridine]	> 10	21.4	13.4

More lines, now with the values behind:

Structure (SMILES)	EC50 (IL-6 in THP-1 cells) [µM]	EC50 [1] [µM]	inhibition at 10 µM [1] [%]	inhibition at 10 µM (IL-6 in THP-1 cells) [%]
CN(C)CC(=O)Nc1cncc(-c2ccc3[nH]nc(-c4nc5c(-c6cccc(F)c6)cncc5[nH]4)c3n2)c1 [Compound 925, 2-(Dimethylamino)-N-(5-(3-(7-(3-fluorophenyl)-3H-imidazo[4,5-c]pyridin-2-yl)-1H-pyrazolo[4,3-b]pyridin-5-yl)pyridin-3-yl)acetamide]	> 10	> 10	8.3	20.1
CS(=O)(=O)NCc1cc(F)cc(-c2cncc3[nH]c(-c4n[nH]c5ccc(-c6cncc(NC(=O)c7ccccc7)c6)nc45)nc23)c1 [Compound 459, N-(5-(3-(7-(3-Fluoro-5-(methylsulfonamidomethyl)phenyl)-3H-imidazo[4,5-c]pyridin-2-yl)-1H-pyrazolo[4,3-b]pyridin-5-yl)pyridin-3-yl)benzamide]	> 10	> 10	0	0
Cc1cn(-c2cncc3[nH]c(-c4n[nH]c5ccc(-c6cncc(NC(=O)C7CCC7)c6)nc45)nc23)cn1 [Compound 217, N-(5-(3-(7-(4-Methyl-1H-imidazol-1-yl)-3H-imidazo[4,5-c]pyridin-2-yl)-1H-pyrazolo[4,3-b]pyridin-5-yl)pyridin-3-yl)cyclobutanecarboxamide]	> 10	> 10	18.8	36.5
NC1CN(c2cncc(-c3ccc4[nH]nc(-c5nc6c(-c7cccc(F)c7)cncc6[nH]5)c4n3)n2)C1 [Compound 482, 1-(6-(3-(7-(3-Fluorophenyl)-3H-imidazo[4,5-c]pyridin-2-yl)-1H-pyrazolo[4,3-b]pyridin-5-yl)pyrazin-2-yl)azetidin-3-amine]	> 10	> 10	16.7	40.8
O=C(Nc1cncc(-c2ccc3[nH]nc(-c4nc5c(-c6ccccc6F)cncc5[nH]4)c3n2)c1)C1CCCC1 [Compound 78, N-(5-(3-(7-(2-Fluorophenyl)-3H-imidazo[4,5-c]pyridin-2-yl)-1H-pyrazolo[4,3-b]pyridin-5-yl)pyridin-3-yl)cyclopentanecarboxamide]	> 10	9.08	–	40.4
C1=C(c2ccc3[nH]nc(-c4nc5c(-c6ccc7c(c6)OCO7)cncc5[nH]4)c3n2)CCNC1 [Compound 1064, 3-(7-(Benzo[d][1,3]dioxol-5-yl)-3H-imidazo[4,5-c]pyridin-2-yl)-5-(1,2,3,6-tetrahydropyridin-4-yl)-1H-pyrazolo[4,3-b]pyridine]	> 10	4.03	–	21.1
Cc1cn(-c2cncc3[nH]c(-c4n[nH]c5ccc(-c6cncc(NC(=O)CC(C)C)c6)nc45)nc23)cn1 [Compound 198, 3-Methyl-N-(5-(3-(7-(4-methyl-1H-imidazol-1-yl)-3H-imidazo[4,5-c]pyridin-2-yl)-1H-pyrazolo[4,3-b]pyridin-5-yl)pyridin-3-yl)butanamide]	> 10	> 10	0	14.5
Cc1ccc(-c2cncc3[nH]c(-c4n[nH]c5ccc(C6=CCNCC6)nc45)nc23)s1 [Compound 686, 3-(7-(5-Methylthiophen-2-yl)-3H-imidazo[4,5-c]pyridin-2-yl)-5-(1,2,3,6-tetrahydropyridin-4-yl)-1H-pyrazolo[4,3-b]pyridine]	> 10	4.91	–	23.8
O=C(Nc1cncc(-c2ccc3[nH]nc(-c4nc5c(-c6ccsc6)cncc5[nH]4)c3n2)c1)c1ccccc1 [Compound 263, N-(5-(3-(7-(Thiophen-3-yl)-3H-imidazo[4,5-c]pyridin-2-yl)-1H-pyrazolo[4,3-b]pyridin-5-yl)pyridin-3-yl)benzamide]	> 10	> 10	0	36.3
